Laboratory results from US8653095B2, “Small molecules with antimalarial activity” (Radix Pharmaceuticals, Inc., priority 2011, dated 2014).
Where two headings read alike, the source gives them in different places.

Assays:
P. falciparum PH3 = experiment: In vitro blood stage antimalarial efficacy, [3H]hypoxanthine uptake, strain PH3; assay type: cell-based; details: Plasmodium falciparum; read-out: IC50
Procedure: (§1) In Vitro Blood Stage Antimalarial Efficacy Evaluation. New compounds were tested against a panel of strains of P. falciparum.
(§2) Test compounds were initially dissolved in DMSO and diluted 400 fold in RPMI 1640 culture medium supplemented with 25 mM Hepes, 32 mM NaHCO3 and 10% Albumax I (Gibco, NY). These solutions were subsequently serially diluted two-fold with a Beckman Biomek® 1000 Robot (Fullerton, Calif.) over 11 different concentrations. The parasites were exposed to serial dilutions of each compound for 48 hrs and incubated at 37° C. with 5% O2, 5% CO2 and 90% N2 prior to the addition of [^3H]hypoxanthine. After a further incubation of 18 hrs, parasite DNA was harvested from each microtiter well using Packard Filtermate™ 196 Harvester (Meriden, Conn.) onto glass filters. Uptake of [^3H]hypoxanthine was measured with a Packard TopCount Liquid Scintillation Counter (Packard Instrument Co.).

P. falciparum 3D7 = experiment: In vitro blood stage antimalarial efficacy, [3H]hypoxanthine uptake, strain 3D7; assay type: cell-based; details: Plasmodium falciparum, read-out: IC50
Procedure: as §1, §2

P. falciparum DD2 = experiment: In vitro blood stage antimalarial efficacy, [3H]hypoxanthine uptake, strain DD2; assay type: cell-based; details: Plasmodium falciparum, read-out: IC50
Procedure: as §1, §2

P. falciparum TM6 = experiment: In vitro blood stage antimalarial efficacy, [3H]hypoxanthine uptake, strain TM6; assay type: cell-based; details: Plasmodium falciparum; read-out: IC50
Procedure: as §1, §2

P. falciparum K1 = experiment: In vitro blood stage antimalarial efficacy, [3H]hypoxanthine uptake, strain K1; assay type: cell-based; details: Plasmodium falciparum, read-out: IC50
Procedure: as §1, §2

P. falciparum TM4 = experiment: In vitro blood stage antimalarial efficacy, [3H]hypoxanthine uptake, strain TM4; assay type: cell-based; details: Plasmodium falciparum; read-out: IC50
Procedure: as §1, §2

P. falciparum V1S = experiment: microbe, parasite or virus in culture; assay type: cell-based; details: Plasmodium falciparum
Procedure: as §1, §2

P. berghei NK-65 = experiment: In vivo efficacy in Swiss mice infected with P. berghei; details: Plasmodium berghei
[1] = tested on: P. falciparum African NF54 strain; experiment: In vivo efficacy in immunocompromised BXN mice infected with P. falciparum NF54; details: Plasmodium falciparum, 96 h, oral once daily for 4 days
Excerpt: (§3) Antimalarial efficacy data was obtained by evaluating new compounds in two rodent models: (I) Swiss mice infected with rodent malaria strain P. berghei; (II) Immunocompromised BXN mice infected with either the sensitive P. falciparum African NF54 strain or the multi-drug resistant P. falciparum Thailand T24 strain.

[2] = tested on: multi-drug resistant P. falciparum Thailand T24 strain; experiment: In vivo efficacy in immunocompromised BXN mice infected with P. falciparum T24; details: Plasmodium falciparum, 96 h, oral once daily for 4 days
Excerpt: as §3

rodent P. berghei = details: for Primary therapeutic index / Secondary therapeutic index: Sprague-Dawley, rat, in vivo, po; for MCureD (minimum curative dose): rodent P. berghei, administered orally
Procedure: Antimalarial potency was measured by determination of the MCD (minimum clearance dose), a commonly used efficacy measurement. The primary therapeutic indices, which were obtained by using the MCDs as the effective parameters, were calculated. A secondary therapeutic indices measure of antimalarial potency was determined by use of the dose for the MCureD (minimum curative dose).

Plasmodium berghei = experiment: Oral prophylactic test in mice; assay type: in vivo; details: for Mice infected and treated/Mice surviving day 60: oral; for Protection from malaria (oral prophylactic activity): mice, single dose of 0.5 mg/kg within 2 days pre-infection through 2 days post-infection
Procedure: Derivative compounds were also tested for oral prophylactic activity.
CD-I male or female mice, 5 weeks of age, were infected with 5×10^4 parasitized erythrocytes of Plasmodium berghei strain. Blood films were taken on day +6 and weekly thereafter until day+30. […]

[3] = tested on: chloroquine-resistant FVO strain of P. falciparum; experiment: Efficacy against blood stages of P. falciparum in Aotus monkeys; assay type: in vivo; details: oral for 3 days
Procedure: In Vivo Efficacy Studies in Aotus Monkey Model. The monkeys selected for the study had active infections of the chloroquine-resistant FVO strain of P. falciparum. Once parasitemias reached 5,000/μl (or as deemed appropriate by the attending veterinarian), they were treated orally with Formula B or Formula C at 2, 4, 8, or 16 mg/kg/day for 3 days. For compound Formula B, the dosage needed to cure 50% of animals was 4 mg/kg/day and the dosage needed to cure 100% of animals was 16 mg/kg/day. For compound Formula C, the 50% curative dose was 2 mg/kg/day and the 100% curative dose was 8 mg/kg/day (Table 7).
Malaria-naive Panamanian owl monkeys (Aotus lemurinus lemurinus) were used as hosts for chioroquine-resistant P. falciparum. The chloroquine-resistant Vietnam Smith strain was used in the initial experiments. In subsequent studies, a recrudescent isolate from a Vietnam Smith strain infected Aotus monkey treated with chloroquine was used.
The inoculum size produced a parasitemia of at least 5×10^3/mm^3 by the fifth day postinoculation, at which time treatment was begun. Stock solutions of water-soluble drug were prepared at appropriate concentrations and maintained at 4° C. during the course of treatment. A suspension of water-insoluble drugs was prepared in 0.3% methylcellulose just prior to use. All drugs were administered by gastric intubation in a volume of 7.0 ml, followed by a 7.0-mi rinse with either water or 0.3% methylcellulose. Test drug was given orally for either three or seven consecutive days. In several experiments, the putative resistance modulator was given three times per day (8:00 AM, noon, and 4:00 PM) for three or seven days.
Giemsa-stained blood smears were prepared from all animals and examined daily beginning the day after inoculation until parasitemia was cleared and for at least seven days thereafter. At that time, blood films were examined twice a week up to 100 days after treatment. Thick blood films were considered negative if no parasites were seen after examination for at least five min. Ten or less parasites on a thick blood film were recorded as <10. Parasitemia was enumerated and expressed as number of parasites/mm^3. Treated animals were observed twice a day for signs of drug toxicity, as evidenced by abnormal behavior, anorexia, diarrhea, or vomiting. Necropsies were per formed on all animals that died. In conducting the research described in this report, the investigators adhered to the Guide for the Care and Use of Laboratory Animals, as promulgated by the National Research Council.
The outcome of each infection was compared with untreated controls and monkeys treated with chloroquine. […]

[4] = 96 h, P. berghei NK-65, Swiss mice, oral once daily for 4 days, read-out: ED50
[5] = read-out: ED50 (the dose leading to 50% parasite growth inhibition compared to the blank control)
[6] = day of treatment 1, dose 0.5 mg/kg
[7] = day of treatment 1, dose 2 mg/kg
[8] = day of treatment 1, dose 8 mg/kg
[9] = day of treatment 1, dose 32 mg/kg
[10] = day of treatment 2, dose 0.5 mg/kg
[11] = day of treatment 2, dose 2 mg/kg
[12] = day of treatment 2, dose 8 mg/kg
[13] = day of treatment 2, dose 32 mg/kg
[14] = day of treatment −1, dose 0.5 mg/kg
[15] = day of treatment −1, dose 2 mg/kg
[16] = day of treatment −1, dose 8 mg/kg
[17] = day of treatment −1, dose 32 mg/kg
[18] = day of treatment −2, dose 0.5 mg/kg
[19] = day of treatment −2, dose 2 mg/kg
[20] = day of treatment −2, dose 8 mg/kg
[21] = day of treatment −2, dose 32 mg/kg

SMILES	IC50 (P. falciparum PH3)	IC50 (P. falciparum 3D7)	IC50 (P. falciparum DD2)	IC50 (P. falciparum TM6)	IC50 (P. falciparum K1)	IC50 (P. falciparum TM4)	IC50 (P. falciparum V1S)	ED50 (P. berghei NK-65; [4])	ED50 (P. berghei NK-65; [5])	ED50 [1]	ED50 [2]	Primary therapeutic index (rodent P. berghei)	Secondary therapeutic index (rodent P. berghei)	MCureD (minimum curative dose) (rodent P. berghei)	Mice infected and treated/Mice surviving day 60 (Plasmodium berghei; [6])	Mice infected and treated/Mice surviving day 60 (Plasmodium berghei; [7])	Mice infected and treated/Mice surviving day 60 (Plasmodium berghei; [8])	Mice infected and treated/Mice surviving day 60 (Plasmodium berghei; [9])	Mice infected and treated/Mice surviving day 60 (Plasmodium berghei; [10])	Mice infected and treated/Mice surviving day 60 (Plasmodium berghei; [11])	also measured
CC[C@@H](N)[C@H](O)[C@H](O)[C@H](COC)[C@@H]1CC[C@@]23CC24c2nc5ccc(OC)cc5cc2C(=O)N[C@H]4CN13 (stereo partly drawn) [Formula B]	0.17 ± 0.04 nM	0.19 ± 0.04 nM	0.27 ± 0.07 nM	0.18 ± 0.03 nM	0.22 ± 0.05 nM	0.23 ± 0.04 nM	0.26 ± 0.05 nM	0.13 mg/kg	< 1 mg/kg	0.24 mg/kg	0.27 mg/kg	237	53	14.2 mg/kg	5/5	5/5	5/5	5/5	5/5	5/5	Mice infected and treated/Mice surviving day 60 (Plasmodium berghei; [12]): 5/5; Mice infected and treated/Mice surviving day 60 (Plasmodium berghei; [13]): 5/5; Mice infected and treated/Mice surviving day 60 (Plasmodium berghei; [14]): 5/5; Mice infected and treated/Mice surviving day 60 (Plasmodium berghei; [15]): 5/5; Mice infected and treated/Mice surviving day 60 (Plasmodium berghei; [16]): 5/5; Mice infected and treated/Mice surviving day 60 (Plasmodium berghei; [17]): 5/5; Mice infected and treated/Mice surviving day 60 (Plasmodium berghei; [18]): 5/5; Mice infected and treated/Mice surviving day 60 (Plasmodium berghei; [19]): 5/5; Mice infected and treated/Mice surviving day 60 (Plasmodium berghei; [20]): 5/5; Mice infected and treated/Mice surviving day 60 (Plasmodium berghei; [21]): 5/5; Protection from malaria (oral prophylactic activity) (Plasmodium berghei): completely protected; Dosage needed to cure 50% of animals (50% curative dose) [3]: 4 mg/kg/day; Dosage needed to cure 100% of animals (100% curative dose) [3]: 16 mg/kg/day
COC[C@@H]([C@@H](O)[C@@H](O)[C@H](N)Cc1ccccc1)[C@@H]1CC[C@@]23CC24c2nc5ccc(OC)cc5cc2C(=O)N[C@H]4CN13 (stereo partly drawn) [Formula C]	0.19 ± 0.04 nM	0.22 ± 0.05 nM	0.16 ± 0.03 nM	0.09 ± 0.02 nM	0.25 ± 0.04 nM	0.31 ± 0.07 nM	0.12 ± 0.03 nM	0.11 mg/kg	< 1 mg/kg	0.2 mg/kg	0.18 mg/kg	290	72	9.82 mg/kg	5/5	5/5	5/5	5/5	5/5	5/5	Mice infected and treated/Mice surviving day 60 (Plasmodium berghei; [12]): 5/5; Mice infected and treated/Mice surviving day 60 (Plasmodium berghei; [13]): 5/5; Mice infected and treated/Mice surviving day 60 (Plasmodium berghei; [14]): 5/5; Mice infected and treated/Mice surviving day 60 (Plasmodium berghei; [15]): 5/5; Mice infected and treated/Mice surviving day 60 (Plasmodium berghei; [16]): 5/5; Mice infected and treated/Mice surviving day 60 (Plasmodium berghei; [17]): 5/5; Mice infected and treated/Mice surviving day 60 (Plasmodium berghei; [18]): 5/5; Mice infected and treated/Mice surviving day 60 (Plasmodium berghei; [19]): 5/5; Mice infected and treated/Mice surviving day 60 (Plasmodium berghei; [20]): 5/5; Mice infected and treated/Mice surviving day 60 (Plasmodium berghei; [21]): 5/5; Protection from malaria (oral prophylactic activity) (Plasmodium berghei): completely protected; Dosage needed to cure 50% of animals (50% curative dose) [3]: 2 mg/kg/day; Dosage needed to cure 100% of animals (100% curative dose) [3]: 8 mg/kg/day
